PubChem BioAssay (NCI)
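Exposure lasted 48 hours, with cells grown in 96-well plates and compounds tested at five concentrations. Here, GI50 denotes the concentration required for 50% inhibition of growth. At the TGI there is no net growth.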

Columns and labels:
Assay in all cases: growth of human tumour cells (NCI), 48 h
786-0 renal = tested on: 786-0 renal
A498 renal = tested on: A498 renal
A549 NSCLC = tested on: A549 NSCLC
ACHN renal = tested on: ACHN renal
BT-549 breast = tested on: BT-549 breast
CCRF-CEM leukemia = tested on: CCRF-CEM leukemia
COLO 205 colon = tested on: COLO 205 colon
DU-145 prostate = tested on: DU-145 prostate
EKVX NSCLC = tested on: EKVX NSCLC
HCC-2998 colon = tested on: HCC-2998 colon
HCT-116 colon = tested on: HCT-116 colon
HCT-15 colon = tested on: HCT-15 colon
HL-60(TB) leukemia = tested on: HL-60(TB) leukemia
HOP-62 NSCLC = tested on: HOP-62 NSCLC
HOP-92 NSCLC = tested on: HOP-92 NSCLC
HS 578T breast = tested on: HS 578T breast
HT29 colon = tested on: HT29 colon
IGROV1 ovarian = tested on: IGROV1 ovarian
K-562 leukemia = tested on: K-562 leukemia
KM12 colon = tested on: KM12 colon
LOX IMVI melanoma = tested on: LOX IMVI melanoma
M14 melanoma = tested on: M14 melanoma
MALME-3M melanoma = tested on: MALME-3M melanoma
MCF7 breast = tested on: MCF7 breast
MDA-MB-231 breast = tested on: MDA-MB-231 breast
MDA-MB-435 = tested on: MDA-MB-435
MOLT-4 leukemia = tested on: MOLT-4 leukemia
NCI-H226 lung = tested on: NCI-H226 lung
NCI-H23 lung = tested on: NCI-H23 lung
NCI-H460 lung = tested on: NCI-H460 lung
NCI-H522 lung = tested on: NCI-H522 lung
NCI/ADR-RES ovarian = tested on: NCI/ADR-RES ovarian
OVCAR-3 ovarian = tested on: OVCAR-3 ovarian
OVCAR-4 ovarian = tested on: OVCAR-4 ovarian
OVCAR-5 ovarian = tested on: OVCAR-5 ovarian
OVCAR-8 ovarian = tested on: OVCAR-8 ovarian
PC-3 prostate = tested on: PC-3 prostate
RPMI-8226 leukemia = tested on: RPMI-8226 leukemia
RXF 393 renal = tested on: RXF 393 renal
SF-268 CNS = tested on: SF-268 CNS
SF-295 CNS = tested on: SF-295 CNS
SF-539 CNS = tested on: SF-539 CNS
SK-MEL-2 melanoma = tested on: SK-MEL-2 melanoma
SK-MEL-28 melanoma = tested on: SK-MEL-28 melanoma
SK-MEL-5 melanoma = tested on: SK-MEL-5 melanoma
SK-OV-3 ovarian = tested on: SK-OV-3 ovarian
SN12C renal = tested on: SN12C renal
SNB-19 CNS = tested on: SNB-19 CNS
SNB-75 CNS = tested on: SNB-75 CNS
SR leukemia = tested on: SR leukemia
SW-620 colon = tested on: SW-620 colon
T-47D breast = tested on: T-47D breast
TK-10 renal = tested on: TK-10 renal
U251 CNS = tested on: U251 CNS
UACC-257 melanoma = tested on: UACC-257 melanoma
UACC-62 melanoma = tested on: UACC-62 melanoma
UO-31 renal = tested on: UO-31 renal

## Nc1ncccc1-c1nc2ccc(-c3ccccc3)nc2n1-c1ccc(C2(N)CCC2)cc1
786-0 renal
  GI50: 0.212 µM
  TGI: 1.6 µM
A498 renal
  GI50: 0.0791 µM
  TGI: 0.654 µM
A549 NSCLC
  GI50: 1.69 µM
  TGI: 6.81 µM
ACHN renal
  GI50: 1.14 µM
  TGI: 3.19 µM
BT-549 breast
  GI50: 0.344 µM
  TGI: 5.14 µM
CCRF-CEM leukemia
  GI50: 0.437 µM
  TGI: 9.86 µM
COLO 205 colon
  GI50: 0.422 µM
  TGI: 2.14 µM
DU-145 prostate
  GI50: 2.98 µM
  TGI: 15 µM
EKVX NSCLC
  GI50: 1.92 µM
  TGI: 16.2 µM
HCC-2998 colon
  GI50: 1.19 µM
  TGI: 2.77 µM
HCT-116 colon
  GI50: 1.43 µM
  TGI: 2.91 µM
HCT-15 colon
  GI50: 1.34 µM
  TGI: 4.27 µM
HL-60(TB) leukemia
  GI50: 1.83 µM
  TGI: 3.92 µM
HOP-62 NSCLC
  GI50: 1.9 µM
  TGI: 8.48 µM
HOP-92 NSCLC
  GI50: 0.0644 µM
  TGI: 1.2 µM
HS 578T breast
  GI50: 0.253 µM
  TGI: 2.31 µM
HT29 colon
  GI50: 0.435 µM
  TGI: 3.37 µM
IGROV1 ovarian
  GI50: 0.0342 µM
  TGI: 0.863 µM
K-562 leukemia
  GI50: 1.89 µM
  TGI: 4.5 µM
KM12 colon
  GI50: 1.78 µM
  TGI: 6.93 µM
LOX IMVI melanoma
  GI50: 1.37 µM
  TGI: 2.77 µM
M14 melanoma
  GI50: 1.4 µM
  TGI: 2.96 µM
MALME-3M melanoma
  GI50: 0.197 µM
  TGI: 1.84 µM
MCF7 breast
  GI50: 0.0465 µM
  TGI: 1.68 µM
MDA-MB-231 breast
  GI50: 1.46 µM
  TGI: 3.39 µM
MDA-MB-435
  GI50: 1.35 µM
  TGI: 2.88 µM
MOLT-4 leukemia
  GI50: 0.188 µM
  TGI: 7.88 µM
NCI-H226 lung
  GI50: 5.02 µM
  TGI: 23.7 µM
NCI-H23 lung
  GI50: 5.19 µM
  TGI: 21.5 µM
NCI-H460 lung
  GI50: 0.333 µM
  TGI: 2.99 µM
NCI-H522 lung
  GI50: 1.53 µM
  TGI: 3.47 µM
NCI/ADR-RES ovarian
  GI50: 2.43 µM
  TGI: 14.6 µM
OVCAR-3 ovarian
  GI50: 0.353 µM
  TGI: 10.6 µM
OVCAR-4 ovarian
  GI50: 4.06 µM
  TGI: 18.7 µM
OVCAR-5 ovarian
  GI50: 1.53 µM
  TGI: 8.23 µM
OVCAR-8 ovarian
  GI50: 2.06 µM
  TGI: 6.24 µM
PC-3 prostate
  GI50: 0.0533 µM
  TGI: 3.39 µM
RPMI-8226 leukemia
  GI50: 1.74 µM
  TGI: 4.78 µM
RXF 393 renal
  GI50: 0.214 µM
  TGI: 1.63 µM
SF-268 CNS
  GI50: 2.05 µM
  TGI: 12.4 µM
SF-295 CNS
  GI50: 0.256 µM
  TGI: 2.3 µM
SF-539 CNS
  GI50: 0.978 µM
  TGI: 2.52 µM
SK-MEL-2 melanoma
  GI50: 1.65 µM
  TGI: 3.54 µM
SK-MEL-28 melanoma
  GI50: 1.2 µM
  TGI: 2.66 µM
SK-MEL-5 melanoma
  GI50: 1.36 µM
  TGI: 2.67 µM
SK-OV-3 ovarian
  GI50: 0.166 µM
  TGI: 3.01 µM
SN12C renal
  GI50: 2.29 µM
  TGI: 13.5 µM
SNB-19 CNS
  GI50: 1.5 µM
  TGI: 3.67 µM
SNB-75 CNS
  GI50: 0.0859 µM
  TGI: 1.7 µM
SR leukemia
  GI50: 1.74 µM
  TGI: 4.75 µM
SW-620 colon
  GI50: 1.53 µM
  TGI: 3.35 µM
T-47D breast
  GI50: < 0.0118 µM
  TGI: 0.158 µM
TK-10 renal
  GI50: 0.719 µM
  TGI: 8.01 µM
U251 CNS
  GI50: 0.746 µM
  TGI: 2.31 µM
UACC-257 melanoma
  GI50: 1.28 µM
  TGI: 2.73 µM
UACC-62 melanoma
  GI50: 1.37 µM
  TGI: 2.99 µM
UO-31 renal
  GI50: 0.278 µM
  TGI: 2.03 µM
